We go through one substance from publication PMC5941281, “Protecting group free radical C–H trifluoromethylation of peptides” (Chemical Science, 2018).

By EC50 is commonly meant the concentration at which the effect is half-maximal. As a reminder, the IC50 is the concentration needed to halve the response being measured. A high value points to weaker potency in that assay.

For assay [1], the target named is human insulin receptor(B). The experiment in a line: Insulin Receptor Phosphorylation Assay (MSD pIR assay). The format is cell-based. To be noted: CHO cells stably expressing human insulin receptor(B), serum starved, 40,000 cells/well, 8 min at 37 °C, read-out: EC50 (functional assay).
Assay [2] addresses human insulin receptor(B). The experiment in a line: Insulin Receptor Binding Assay (scintillation proximity assay). To be noted: SPA, 384-well, membranes from CHO cells overexpressing human insulin receptor(B); [125I]-insulin 0.015 nM; room temperature, 1 to 12 hours. As for the experimental part: Both the binding affinity and functional activity of 18 supported the conclusion that the A19-CF3-tyrosine–insulin maintained its structural integrity as compared with unmodified, native insulin. To further support this observation, SOFAST ^13C methyl HMQC NMR spectroscopic analysis was conducted on both 18 and native unmodified insulin.[18] […] This observation validated the notion that CF3-labeling of aromatic sidechains provides a sensitive ^19F-NMR spectroscopic probe of the local environment in complex peptides while being minimally perturbing to the overall structure of the biomacromolecule.
Insulin Receptor Binding Assays were run in a scintillation proximity assay (SPA) 384- we ll
format using cell membranes prepared from CHO cells overexpressing human insulin
receptor(B) grown in F12 media containing 10% FBS and antibiotics (G418,
Penicillin/[…]). Cell membranes were prepared in 50 mM Tris buffer, pH 7.8, containing
5 m M Mg Cl 2. The assay buffer contained 50 mM Tris buffer, pH 7.5, 150 mM NaCl, 1 mM
CaCl2, 5 mM MgCl 2, 0.1% BSA and protease inhibitors (Complete- Mi n i -Roche). Cell
membranes were added to W GA PVT PEI SPA beads (5 mg/mL f inal concentration) f ollowed by
addition of test molecules at appropriate concentrations. After 5-15 min incubation at room
temperature, [125I]- insulin was added at 0.015 nM f inal concentration f or a f inal total volume of
50 µL. […]
(In general: In a scintillation proximity assay essentially only radioactivity close to the scintillant gives light.)

Consider “native insulin: recombinant human insulin, 21 amino acid A chain and 30 amino acid B chain linked by three disulfide bonds”, for which the EC50 in assay [1] came out at 0.4 nM. The same substance gave an IC50 in assay [2] of 0.8 nM.
